Test system: A375 cells
Test: Cell viability assay in A375 cells (XTT)
Assay type: cell-based
Conditions: Homo sapiens, A-375, 72 h, three days after compound addition
Experimental: The cell viability assay in A375 cells is set up in a 96-well plate format using XTT.
XTT is a yellow tetrazolium salt that is cleaved to an orange formazan dye by the mitochondria of metabolically active cells. The procedure allows for rapid determination in a microtitre plate, to give reproducible and sensitive results.
A375 cells are grown in DMEM media containing 10% FBS and 1 mM sodium pyruvate. Cells are trypsinized and seeded at 1000 cells/well. After allowing the cells to adhere overnight, compound is added to the wells at the following final concentrations: 10, 3, 1, 0.3, 0.1, 0.03, 0.01, 0.001, and 0.0001 μM. The assay is set up in triplicates for each concentration. DMSO concentrations are kept at 0.5%/well. Three days after compound addition, the XTT assay is performed. Wells are washed once with PBS. 100 μL of DMEM media without phenol red or FBS is added to each well. A working solution of XTT containing 1 mg/ml XTT and 100 μL of PMS (stock concentration 0.383 mg/ml) per 5 ml is prepared. 50 μL of the working solution of XTT is added to each well. Absorbance of the plate is read at 465 nm using a Spectramax 190 (Molecular Devices). The absorbance from wells with media and XTT alone, but without cells is considered the blank and subtracted from readings from all wells.
Percentage viability is calculated considering the blank subtracted value from wells treated with DMSO alone as 100% viable. GI50 values are calculated using Graphpad Prism, using non-linear regression curve fit for sigmoidal dose response (variable slope).
The cell viability assay is further described in Scudiero, et. al., Cancer Research (1988) 48, 4827-4833; Weislow, et. al., J. Natl. Cancer Institute, (1989) 81, 577-586; and Roehm, et. al., J. Immunol. Methods [1991]142:257-265.

SMILES | GI50
CCONC(=O)c1c(Nc2ccc(Br)cc2F)cc(=O)n2c1CCC2 [Compound 10] | 40 nM
CONC(=O)c1c(Nc2ccc(I)cc2F)cc(=O)n2c1CCC2 [Compound 41] | 9 nM
CCONC(=O)c1c(Nc2ccc(I)cc2F)cc(=O)n2c1CCC2 [Compound 42] | 3.6 nM
CONC(=O)c1c(Nc2ccc(Br)cc2F)cc(=O)n2c1CCC2 [Compound 6] | 150 nM
NC(=O)c1c(Nc2ccc(I)cc2F)cc(=O)n2c1CCC2 [Compound 38] | 73 nM
O=C(NOCCO)c1c(Nc2ccc(I)cc2F)cc(=O)n2c1CCC2 [Compound 40] | 0.7 nM

More lines, now with the values ahead:

GI50 | SMILES
0.8 nM | O=C(NOCC1CC1)c1c(Nc2ccc(I)cc2F)cc(=O)n2c1CCC2 [Compound 39]
0.4 nM | O=C(NOCC1CC1)c1c(Nc2ccc(I)cc2F)c(F)c(=O)n2c1CCC2 [Compound 45]
36 nM | Cc1c(Nc2ccc(Br)cc2F)c(C(=O)NOCC2CC2)c2n(c1=O)CCC2 [Compound 24]
10 nM | Cc1c(Nc2ccc(Br)cc2F)c(C(=O)NOCCO)c2n(c1=O)CCC2 [Compound 25]
6.7 nM | O=C(NOCCO)c1c(Nc2ccc(I)cc2F)c(F)c(=O)n2c1CCC2 [Compound 46]
55 nM | O=C(NOCC1CC1)c1c(Nc2ccc(Br)cc2F)c(F)c(=O)n2c1CCC2 [Compound 20]
60 nM | CCONC(=O)c1c(Nc2ccc(Br)cc2F)c(C)c(=O)n2c1CCC2 [Compound 27]
14 nM | O=C(NOCC1CC1)c1c(Nc2ccc(Br)cc2F)cc(=O)n2c1CCC2 [Compound 4]

— patent US20090275606A1, “Heterocyclic Compounds as MEK Inhibitors” (Novartis AG, priority 2008, published 2009)
